Results on nine molecules are retold here after patent US5658935A, “Heterocycles, their preparation and their use” (Hoechst Aktiengesellschaft, priority 1993, dated 1997).

In experiment [1] the test system is gel-filtered human platelets. Nature of the experiment: Inhibition of the aggregation of gel-filtered human platelets after ADP or thrombin stimulation. It is filed as cell-based. Particulars: Platelet. Here is the method:
(§1) The compounds are tested in particular for their inhibitory effect on blood platelet aggregation and the adhesion of fibrinogen to blood platelets. Gel-filtered blood platelets from human donor blood are used, which are activated with ADP or thrombin.
As a functional test, the inhibition of the aggregation of gel-filtered human platelets is measured after ADP or thrombin stimulation by the compounds according to the invention. The IC50 value of the inhibition is indicated (reference: G. A. Marguerie et al., J. Biol. Chem. 254 (1979), 5357-5363).
(§2) On testing of the inhibition of fibrinogen binding and the inhibition of aggregation, the following results are obtained for the compounds of the examples which follow: […]

Experiment [2] concerns the target T1, fibrinogen receptor (glycoprotein IIb/IIIa) (Homo sapiens, UniProt P05106+P08514).
T1 construct: on intact, gel-filtered human platelets; from tissue; host or cells: gel-filtered blood platelets from human donor blood
Briefly: Inhibition of the binding of 125I-fibrinogen to its receptor (glycoprotein IIb/IIIa) on intact, gel-filtered human platelets. The conditions noted are these: after stimulation with ADP (10 μM). Here is the method:
as §1
The inhibition of the binding of fibrinogen to its receptor (glycoprotein IIb/IIIa) on intact, gel-filtered human platelets by the compounds according to the invention is tested. The Ki value of the inhibition of binding of […] after stimulation with ADP (10 μM) is indicated. (Reference: J. S. Bennett and G. Vilaire, J. Clin. Invest. 64 (1979) 1393-1401; E. Kornecki et al., J. Biol. Chem. 256 (1981), 5695-5701; G. A. Marguerie et al., J. Biol. Chem. 254 (1979) 5357-5363; G. A. Marguerie et al., J. Biol. Chem. 255 (1980) 154-161.)
as §2

Where [3] appears, read: ADP stimulation, read-out: Inhibition of platelet aggregation, ADP (IC50).
Where [4] appears, read: thrombin stimulation, read-out: Inhibition of platelet aggregation, thrombin (IC50).

Read-outs that look alike come from different tables or passages of the source.

T1 sequence (P08514 32-887 limits assumed): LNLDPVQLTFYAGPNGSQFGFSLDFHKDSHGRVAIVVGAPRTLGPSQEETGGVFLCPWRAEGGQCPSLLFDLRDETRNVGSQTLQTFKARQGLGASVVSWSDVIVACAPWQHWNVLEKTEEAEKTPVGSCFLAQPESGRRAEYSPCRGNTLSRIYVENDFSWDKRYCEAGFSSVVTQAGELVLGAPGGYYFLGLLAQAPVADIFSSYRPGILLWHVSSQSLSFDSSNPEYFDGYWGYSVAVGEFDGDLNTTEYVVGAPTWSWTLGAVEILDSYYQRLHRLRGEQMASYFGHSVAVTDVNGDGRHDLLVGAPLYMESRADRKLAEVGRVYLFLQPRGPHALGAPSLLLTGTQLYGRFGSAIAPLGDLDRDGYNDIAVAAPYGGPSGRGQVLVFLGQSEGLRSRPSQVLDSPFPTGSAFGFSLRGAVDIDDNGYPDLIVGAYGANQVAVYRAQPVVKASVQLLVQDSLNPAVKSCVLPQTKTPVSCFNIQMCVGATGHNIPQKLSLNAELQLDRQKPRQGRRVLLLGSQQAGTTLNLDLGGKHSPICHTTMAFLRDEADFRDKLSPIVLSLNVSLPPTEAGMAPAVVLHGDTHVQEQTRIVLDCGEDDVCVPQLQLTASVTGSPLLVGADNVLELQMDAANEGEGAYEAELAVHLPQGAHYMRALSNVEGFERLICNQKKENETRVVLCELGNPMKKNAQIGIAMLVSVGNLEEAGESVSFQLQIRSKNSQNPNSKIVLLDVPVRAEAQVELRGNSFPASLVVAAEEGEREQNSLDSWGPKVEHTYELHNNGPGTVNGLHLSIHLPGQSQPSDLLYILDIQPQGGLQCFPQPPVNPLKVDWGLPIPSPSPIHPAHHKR
T1 sequence (P08514 891-1039 limits assumed): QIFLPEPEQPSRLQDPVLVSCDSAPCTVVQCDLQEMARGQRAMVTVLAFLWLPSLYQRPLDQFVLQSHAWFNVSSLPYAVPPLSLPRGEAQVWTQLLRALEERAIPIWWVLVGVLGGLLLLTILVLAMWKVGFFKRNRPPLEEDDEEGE
T1 sequence (P05106 27-788): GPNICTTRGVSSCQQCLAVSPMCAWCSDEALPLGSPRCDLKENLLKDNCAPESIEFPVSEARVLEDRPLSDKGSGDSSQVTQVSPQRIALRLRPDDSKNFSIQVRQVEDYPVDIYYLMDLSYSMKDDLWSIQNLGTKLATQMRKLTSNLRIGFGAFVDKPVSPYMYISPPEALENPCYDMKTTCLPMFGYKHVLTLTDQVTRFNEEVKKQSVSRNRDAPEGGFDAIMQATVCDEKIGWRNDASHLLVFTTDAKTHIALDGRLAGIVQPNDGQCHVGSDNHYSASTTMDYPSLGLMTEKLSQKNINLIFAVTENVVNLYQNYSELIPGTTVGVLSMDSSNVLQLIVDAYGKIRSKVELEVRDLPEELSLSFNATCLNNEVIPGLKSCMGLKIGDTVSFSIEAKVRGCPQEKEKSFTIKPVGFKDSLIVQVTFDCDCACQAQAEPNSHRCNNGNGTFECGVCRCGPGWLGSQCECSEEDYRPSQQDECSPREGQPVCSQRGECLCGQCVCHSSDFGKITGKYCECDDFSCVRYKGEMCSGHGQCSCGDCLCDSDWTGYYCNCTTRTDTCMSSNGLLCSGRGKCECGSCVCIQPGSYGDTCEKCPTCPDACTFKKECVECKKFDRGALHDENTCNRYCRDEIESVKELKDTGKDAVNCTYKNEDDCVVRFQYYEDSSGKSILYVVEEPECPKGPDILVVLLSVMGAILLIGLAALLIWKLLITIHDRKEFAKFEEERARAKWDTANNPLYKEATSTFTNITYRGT

A word on the IC50: it is the point on the concentration scale where inhibition reaches its midpoint. In the case of `COC(=O)[C@H](Cc1c[nH]c2ccccc12)NC(=O)CN1C(=O)CC(Cc2ccc(C(=N)N)cc2)C1=O` (stereo partly drawn) [Example 12, {3-[4-(Aminoiminomethyl)benzyl]-2,5-dioxopyrrolidin-1-yl}acetyl-L-tryptophan methyl ester], the half-inhibitory concentration (IC50) in experiment [1] (setting [3]) came out at 100 µM; in experiment [1] (setting [4]) it was 80 µM.
Regarding `O=C(O)C[C@H](NC(=O)CN1C(=O)CC(CC2CCNCC2)C1=O)C(=O)N[C@H](C(=O)O)c1ccccc1` (stereo partly shown) [Example 19], the IC50 in experiment [1] (setting [3]) is 4 µM; in experiment [1] (setting [4]), 1 µM.
The matching figures for `COC(=O)C(CCc1ccccc1)NC(=O)CN1C(=O)CC(Cc2ccc(C(=N)N)cc2)C1=O` (racemic) [Example 13, {3-[4-(Aminoiminomethyl)benzyl]-2,5-dioxopyrrolidin-1-yl}acetyl-D,L-homophenylalanine methyl ester]: 100 µM and 100 µM.
The matching figures for `COC(=O)CC(NC(=O)CN1C(=O)CC(Cc2ccc(C(=N)N)cc2)C1=O)c1cccc(O)c1` (racemic) [Example 15, Methyl 3-(R,S)-3-<{3-[4-(aminoiminomethyl)benzyl]-2,5-dioxopyrrolidin-1-yl}acetamido>-3-(3-hydroxyphenyl)propionate]: 200 µM and 200 µM.
`CC(C)OC(=O)C[C@H](NC(=O)CN1C(=O)CC(Cc2ccc(C(=N)N)cc2)C1=O)C(=O)N[C@H](C(=O)OC(C)C)c1ccccc1` (stereo partly drawn) [Example 14, {3-[4-(Aminoiminomethyl)benzyl]-2,5-dioxopyrrolidin-1-yl}acetyl-L-(β-isopropyl)aspartyl-L-phenylglycine isopropyl ester]: the IC50 in experiment [1] (setting [3]) is 20 µM; in experiment [1] (setting [4]), 35 µM.
The Ki is the dissociation constant of the complex between target and ligand, obtained from inhibition or displacement. Low values mean a stronger hold on the target, high ones a looser hold on the target. For the molecule `N=C(N)c1ccc(CC2CC(=O)N(CC(=O)N[C@@H](CC(=O)O)C(=O)N[C@H](C(=O)O)c3ccccc3)C2=O)cc1` (stereo partly drawn) [Example 1, {3-[4-(Aminoiminomethyl)benzyl]-2,5-dioxopyrrolidin-1-yl}acetyl-L-aspartyl-L-phenylglycine], the IC50 in experiment [1] (setting [3]) was determined as 0.2 µM; in experiment [1] (setting [4]), 0.09 µM. The molecule further had a Ki in experiment [2] of 0.043 µM.
On to `N=C(N)c1ccc(CC2CC(=O)N(CC(=O)NC(CC(=O)O)c3cccc(O)c3)C2=O)cc1` (racemic) [Example 16, 3-(R,S)-3-<{3-[4-(Aminoiminomethyl)benzyl]-2,5-dioxopyrrolidin-1-yl}acetamido>-3-(3-hydroxyphenyl)propionate], for which the figures for the IC50 in experiment [1] (setting [3]) and in experiment [1] (setting [4]) were 20 µM and 9 µM, respectively.
The matching figures for `N=C(N)c1ccc(CC2CC(=O)N(CC(=O)N[C@@H](Cc3c[nH]c4ccccc34)C(=O)O)C2=O)cc1` (stereo partly drawn) [Example 18, {3-[4-(Aminoiminomethyl)benzyl]-2,5-dioxopyrrolidin-1-yl}acetyl-L-tryptophan]: 100 µM and 70 µM.
For `N=C(N)c1ccc(CC2CC(=O)N(CC(=O)NC(CCc3ccccc3)C(=O)O)C2=O)cc1` (racemic) [Example 17, {3-[4-(Aminoiminomethyl)benzyl]-2,5-dioxopyrrolidin-1-yl}acetyl-D,L-homophenylalanine] the same measures were 100 µM and 100 µM.
